Results as given in patent US20260125352A1, “PROCESSES FOR CONVERTING FURFURALS” (Origin Materials Operating, Inc., priority 2023, published 2026).

Assay: Solubility of amine and their hydrochlorides in solvents at room temperature
Format: physicochemical
Details: for Solubility of amines in acetone / Solubility of amines in methanol / Solubility of amines in methylfurfural (MF) / Solubility of amines in propylene carbonate / Solubility of amines in toluene / Solubility of amines in water: free amine, low values at saturation; for Solubility of amines in acetone / Solubility of amine hydrochloride salts in acetone: acetone μ = 20.7, high values not necessarily at saturation; for Solubility of amines in methanol / Solubility of amine hydrochloride salts in methanol: methanol μ = 32.7, high values not necessarily at saturation; for Solubility of amines in methylfurfural (MF) / Solubility of amine hydrochloride salts in methylfurfural (MF): methylfurfural (MF) μ = 41.9, high values not necessarily at saturation; for Solubility of amines in propylene carbonate / Solubility of amine hydrochloride salts in propylene carbonate: propylene carbonate μ = 64.9, high values not necessarily at saturation; for Solubility of amines in toluene / Solubility of amine hydrochloride salts in toluene: toluene μ = 2.4, high values not necessarily at saturation; for Solubility of amines in water / Solubility of amine hydrochloride salts in water: water μ = 78.4, high values not necessarily at saturation; for Solubility of amine hydrochloride salts in acetone / Solubility of amine hydrochloride salts in methanol / Solubility of amine hydrochloride salts in methylfurfural (MF) / Solubility of amine hydrochloride salts in propylene carbonate / Solubility of amine hydrochloride salts in toluene / Solubility of amine hydrochloride salts in water: hydrochloride salt of the amine precursor

| Solubility of amines in acetone [wt. %] | Solubility of amines in methanol [wt. %] | Solubility of amines in methylfurfural (MF) [wt. %] | Solubility of amines in propylene carbonate [wt. %] | Solubility of amines in toluene [wt. %] | Solubility of amines in water [wt. %] | Solubility of amine hydrochloride salts in acetone [wt. %] | Solubility of amine hydrochloride salts in methanol [wt. %] | Solubility of amine hydrochloride salts in methylfurfural (MF) [wt. %] | Solubility of amine hydrochloride salts in propylene carbonate [wt. %] | Solubility of amine hydrochloride salts in toluene [wt. %] | Solubility of amine hydrochloride salts in water [wt. %] | SMILES |
| --- | --- | --- | --- | --- | --- | --- | --- | --- | --- | --- | --- | --- |
| 49.20 | 49.11 | 14.35 | 4.59 | 46.90 | 0.30 | 15.01 | 33.08 | 26.83 | 34.05 | <4.91 | 33.39 | CCN(C(C)C)C(C)C [Hunig's base] |
| – | – | – | – | – | 47.16 | <0.09 | 34.66 | <0.13 | <1.16 | <0.12 | 38.39 | CN(C)C [trimethylamine] |
| – | – | – | – | – | – | 34.35 | 47.15 | 24.44 | 31.21 | 51.82 | 25.88 | CC(C)CN(CC(C)C)CC(C)C [triisobutylamine, 2-methyl-N,N-bis(2-methylpropyl)propan-1-amine] |
| 49.87 | 9.27 | 2.49 | 0.17 | 47.61 | 0.00 | – | – | – | – | – | – | CCCCCN(CCCCC)CCCCC [triamylamine] |
